Assay results published in article PMC13524802, “Unique adaptations in sulfatases underpin colonic mucin degradation by Akkermansia muciniphila” (Nature Microbiology, 2026).

Key:
Amuc0491^3S-Gal/GalNAc = target: T1, Amuc0491^3S-Gal/GalNAc (Akkermansia muciniphila, UniProt B2UNV9); assay: HPAEC and microfluidic desulfation assays; type: biochemical; conditions: 5 mM CaCl2, 150 mM NaCl; kinetics (kcat/Km only) with labelled compound
T1 construct: gene Amuc_0491; recombinant, N-terminal His6 (pETite), E. coli TUNER (DE3)

Amuc1755^4S-Gal [1] = target: T2, Amuc1755^4S-Gal (Akkermansia muciniphila, UniProt B2UML7, E464A); assay: HPAEC and TLC desulfation assay; type: biochemical; conditions: overnight, 37 °C
T2 construct: gene Amuc_1755; recombinant, N-terminal His6 (pETite), E. coli TUNER (DE3); monomer

Amuc1755^4S-Gal [2] = target: T3, Amuc1755^4S-Gal (Akkermansia muciniphila, UniProt B2UML7, E464G); assay: HPAEC and TLC desulfation assay; type: biochemical; conditions: overnight, 37 °C
T3 construct: gene Amuc_1755; recombinant, N-terminal His6 (pETite), E. coli TUNER (DE3); monomer

[3] = target: Amuc1033^6S-GlcNAc (Akkermansia muciniphila) (UniProt B2UQX4); assay: SEC-MALS; size-exclusion chromatography coupled to light scattering (90°) and refractive index; Agilent BioSEC Advance 300 Å column; 20 mM Tris-HCl pH 7.4, 150 mM NaCl; calibrated with BSA

T3 sequence (B2UML7 entry or part of it E464G): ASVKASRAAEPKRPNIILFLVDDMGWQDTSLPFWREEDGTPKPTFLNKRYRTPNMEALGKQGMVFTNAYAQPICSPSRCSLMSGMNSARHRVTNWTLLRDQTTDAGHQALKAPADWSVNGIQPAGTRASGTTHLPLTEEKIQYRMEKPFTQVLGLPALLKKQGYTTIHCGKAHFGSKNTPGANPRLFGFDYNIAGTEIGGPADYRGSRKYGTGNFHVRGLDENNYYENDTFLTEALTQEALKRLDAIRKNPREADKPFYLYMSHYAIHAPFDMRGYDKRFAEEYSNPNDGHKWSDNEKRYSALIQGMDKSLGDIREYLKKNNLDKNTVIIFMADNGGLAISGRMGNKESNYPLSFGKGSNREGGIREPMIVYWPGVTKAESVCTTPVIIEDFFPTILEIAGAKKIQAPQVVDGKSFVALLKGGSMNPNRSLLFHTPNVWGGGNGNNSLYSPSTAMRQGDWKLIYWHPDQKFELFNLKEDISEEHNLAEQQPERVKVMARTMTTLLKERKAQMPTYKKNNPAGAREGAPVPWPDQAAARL
T1 sequence (B2UNV9 entry or part of it): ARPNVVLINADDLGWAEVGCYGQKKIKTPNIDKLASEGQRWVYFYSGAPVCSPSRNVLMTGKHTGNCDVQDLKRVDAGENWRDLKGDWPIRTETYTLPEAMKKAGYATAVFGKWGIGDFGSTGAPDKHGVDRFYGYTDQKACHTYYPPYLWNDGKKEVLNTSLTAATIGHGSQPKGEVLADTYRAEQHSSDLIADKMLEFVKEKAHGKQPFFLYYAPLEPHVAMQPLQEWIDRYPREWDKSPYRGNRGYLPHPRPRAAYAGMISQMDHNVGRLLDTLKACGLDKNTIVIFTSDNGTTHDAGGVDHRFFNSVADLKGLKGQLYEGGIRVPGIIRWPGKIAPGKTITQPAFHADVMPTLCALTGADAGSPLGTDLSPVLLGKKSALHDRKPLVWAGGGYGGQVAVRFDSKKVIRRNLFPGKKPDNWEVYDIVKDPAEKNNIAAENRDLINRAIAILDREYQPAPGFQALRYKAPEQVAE
T2 sequence (B2UML7 entry or part of it E464A): as the sequence (B2UML7 entry or part of it E464G) above, with G441A counted along it

stoichiometry N [3]	Compound	HPAEC and microfluidic desulfation assays (Amuc0491^3S-Gal/GalNAc)	HPAEC and TLC desulfation assay (Amuc1755^4S-Gal [1])	HPAEC and TLC desulfation assay (Amuc1755^4S-Gal [2])
	CC(=O)N[C@H]1C(O)O[C@H](CO)[C@H](O)[C@@H]1OS(=O)(=O)O (stereo partly drawn) [3S-GalNAc, O3 sulfated N-acetyl-D-galactosamine]	only Amuc0491^3S-Gal/GalNAc was capable of desulfating O3 sulfatedN-acetyl-D-galactosamine (3S-GalNAc)		
	O=S(=O)(O)O[C@H]1[C@@H](O)[C@@H](CO)OC(O)[C@@H]1O (stereo partly drawn) [3S-Gal, O3 sulfated D-galactose]	which desulfate O3 sulfated D-galactose (3S-Gal)-containing substrates		
	CC(=O)N[C@H]1C(O)O[C@H](CO)[C@H](OS(=O)(=O)O)[C@@H]1O (stereo partly drawn) [4S-GalNAc, O4 sulfated N-acetyl-D-galactosamine]		Mutation of Glu464 to Ala and Gly enabled the Amuc1755^4S-Gal to work on 4S-GalNAc	Mutation of Glu464 to Ala and Gly enabled the Amuc1755^4S-Gal to work on 4S-GalNAc
	O=S(=O)(O)O[C@@H]1[C@H](O)[C@@H](O)C(O)O[C@@H]1CO (stereo partly drawn) [4S-Gal, O4 sulfated D-galactose]		but reduced activity on 4S-Gal	but reduced activity on 4S-Gal
2	Amuc1033^6S-GlcNAc (from UniProt B2UQX4 1-581) (enzyme)			
